Measured values taken from ChEMBL document CHEMBL5113398, “Design and synthesis of new quinoline derivatives as selective C-RAF kinase inhibitors with potent anticancer activity” (Eur J Med Chem, 2022).

What was measured:
PC-3 [1] = experiment: Anticancer activity against human PC-3 cells assessed as total cell growth inhibition incubated for 48 hrs by SRB assay; type: functional
EKVX [2] = experiment: Anticancer activity against human EKVX cells assessed as cell growth inhibition incubated for 48 hrs by SRB assay; type: functional
CAKI-1 [3] = experiment: Anticancer activity against human CAKI-1 cells assessed as cell growth inhibition incubated for 48 hrs by SRB assay; type: functional
786-0 = experiment: Anticancer activity against human 786-0 cells assessed as cell growth inhibition incubated for 48 hrs by SRB assay; type: functional
RXF 393 [4] = experiment: Anticancer activity against human RXF 393 cells assessed as cell growth inhibition incubated for 48 hrs by SRB assay; type: functional
SF-295 = experiment: Anticancer activity against human SF-295 cells assessed as total cell growth inhibition incubated for 48 hrs by SRB assay; type: functional
RXF 393 [5] = experiment: Anticancer activity against human RXF 393 cells assessed as total cell growth inhibition incubated for 48 hrs by SRB assay; type: functional
NCI-H322M [6] = experiment: Anticancer activity against human NCI-H322M cells assessed as cell growth inhibition incubated for 48 hrs by SRB assay; type: functional
NCI-H23 [7] = experiment: Anticancer activity against human NCI-H23 cells assessed as cell growth inhibition incubated for 48 hrs by SRB assay; type: functional
HOP-92 = experiment: Anticancer activity against human HOP-92 cells assessed as total cell growth inhibition incubated for 48 hrs by SRB assay; type: functional
HOP-62 = experiment: Anticancer activity against human HOP-62 cells assessed as total cell growth inhibition incubated for 48 hrs by SRB assay; type: functional
EKVX [8] = experiment: Anticancer activity against human EKVX cells assessed as total cell growth inhibition incubated for 48 hrs by SRB assay; type: functional
NCI-H226 = experiment: Anticancer activity against human NCI-H226 cells assessed as cell growth inhibition incubated for 48 hrs by SRB assay; type: functional
SNB-75 [9] = experiment: Anticancer activity against human SNB-75 cells assessed as cell growth inhibition incubated for 48 hrs by SRB assay; type: functional
NCI-H23 [10] = experiment: Anticancer activity against human NCI-H23 cells assessed as total cell growth inhibition incubated for 48 hrs by SRB assay; type: functional
NCI/ADR-RES = experiment: Anticancer activity against human NCI/ADR-RES cells assessed as total cell growth inhibition incubated for 48 hrs by SRB assay; type: functional
SK-MEL-28 = experiment: Anticancer activity against human SK-MEL-28 cells assessed as total cell growth inhibition incubated for 48 hrs by SRB assay; type: functional
[11] = target: Vascular endothelial growth factor receptor 2 (Homo sapiens) (UniProt P35968); experiment: Inhibition of VEGFR2 (unknown origin) at 1 uM in presence of ATP by hotspot kinase assay
MDA-MB-231 = experiment: Anticancer activity against human MDA-MB-231 cells assessed as cell growth inhibition incubated for 48 hrs by SRB assay; type: functional
OVCAR-8 [12] = experiment: Anticancer activity against human OVCAR-8 cells assessed as total cell growth inhibition incubated for 48 hrs by SRB assay; type: functional
NCI-H322M [13] = experiment: Anticancer activity against human NCI-H322M cells assessed as total cell growth inhibition incubated for 48 hrs by SRB assay; type: functional
OVCAR-3 [14] = experiment: Anticancer activity against human OVCAR-3 cells assessed as cell growth inhibition incubated for 48 hrs by SRB assay; type: functional
HCC 2998 [15] = experiment: Anticancer activity against human HCC 2998 cells assessed as cell growth inhibition incubated for 48 hrs by SRB assay; type: functional
ACHN [16] = experiment: Anticancer activity against human ACHN cells assessed as total cell growth inhibition incubated for 48 hrs by SRB assay; type: functional
BT-549 [17] = experiment: Anticancer activity against human BT-549 cells assessed as cell growth inhibition incubated for 48 hrs by SRB assay; type: functional
ACHN [18] = experiment: Anticancer activity against human ACHN cells assessed as cell growth inhibition incubated for 48 hrs by SRB assay; type: functional
MOLT-4 = experiment: Anticancer activity against human MOLT-4 cells assessed as cell growth inhibition incubated for 48 hrs by SRB assay; type: functional
A549 = experiment: Anticancer activity against human A549 cells assessed as total cell growth inhibition incubated for 48 hrs by SRB assay; type: functional
SF-268 = experiment: Anticancer activity against human SF-268 cells assessed as total cell growth inhibition incubated for 48 hrs by SRB assay; type: functional
OVCAR-8 [19] = experiment: Anticancer activity against human OVCAR-8 cells assessed as cell growth inhibition incubated for 48 hrs by SRB assay; type: functional
OVCAR-5 [20] = experiment: Anticancer activity against human OVCAR-5 cells assessed as total cell growth inhibition incubated for 48 hrs by SRB assay; type: functional
SF-539 = experiment: Anticancer activity against human SF-539 cells assessed as total cell growth inhibition incubated for 48 hrs by SRB assay; type: functional
RPMI-8226 = experiment: Anticancer activity against human RPMI-8226 cells assessed as total cell growth inhibition incubated for 48 hrs by SRB assay; type: functional
SNB-75 [21] = experiment: Anticancer activity against human SNB-75 cells assessed as total cell growth inhibition incubated for 48 hrs by SRB assay; type: functional
HT-29 = experiment: Anticancer activity against human HT-29 cells assessed as cell growth inhibition incubated for 48 hrs by SRB assay; type: functional
OVCAR-4 = experiment: Anticancer activity against human OVCAR-4 cells assessed as cell growth inhibition incubated for 48 hrs by SRB assay; type: functional
CAKI-1 [22] = experiment: Anticancer activity against human CAKI-1 cells assessed as total cell growth inhibition incubated for 48 hrs by SRB assay; type: functional
OVCAR-3 [23] = experiment: Anticancer activity against human OVCAR-3 cells assessed as total cell growth inhibition incubated for 48 hrs by SRB assay; type: functional
BT-549 [24] = experiment: Anticancer activity against human BT-549 cells assessed as total cell growth inhibition incubated for 48 hrs by SRB assay; type: functional
TK-10 = experiment: Anticancer activity against human TK-10 cells assessed as total cell growth inhibition incubated for 48 hrs by SRB assay; type: functional
NCI-H460 = experiment: Anticancer activity against human NCI-H460 cells assessed as total cell growth inhibition incubated for 48 hrs by SRB assay; type: functional
U-251 = experiment: Anticancer activity against human U-251 cells assessed as cell growth inhibition incubated for 48 hrs by SRB assay; type: functional
HCC 2998 [25] = experiment: Anticancer activity against human HCC 2998 cells assessed as total cell growth inhibition incubated for 48 hrs by SRB assay; type: functional
[26] = target: RAF proto-oncogene serine/threonine-protein kinase (Homo sapiens, UniProt P04049); experiment: Inhibition of c-Raf (unknown origin) in presence of ATP by hotspot kinase assay
OVCAR-5 [27] = experiment: Anticancer activity against human OVCAR-5 cells assessed as cell growth inhibition incubated for 48 hrs by SRB assay; type: functional
PC-3 [28] = experiment: Anticancer activity against human PC-3 cells assessed as cell growth inhibition incubated for 48 hrs by SRB assay; type: functional
K562 = experiment: Anticancer activity against human K562 cells assessed as total cell growth inhibition incubated for 48 hrs by SRB assay; type: functional
SNB-19 = experiment: Anticancer activity against human SNB-19 cells assessed as cell growth inhibition incubated for 48 hrs by SRB assay; type: functional
LOX IMVI = experiment: Anticancer activity against human LOX IMVI cells assessed as cell growth inhibition incubated for 48 hrs by SRB assay; type: functional

Chain of RAF proto-oncogene serine/threonine-protein kinase (P04049 whole entry): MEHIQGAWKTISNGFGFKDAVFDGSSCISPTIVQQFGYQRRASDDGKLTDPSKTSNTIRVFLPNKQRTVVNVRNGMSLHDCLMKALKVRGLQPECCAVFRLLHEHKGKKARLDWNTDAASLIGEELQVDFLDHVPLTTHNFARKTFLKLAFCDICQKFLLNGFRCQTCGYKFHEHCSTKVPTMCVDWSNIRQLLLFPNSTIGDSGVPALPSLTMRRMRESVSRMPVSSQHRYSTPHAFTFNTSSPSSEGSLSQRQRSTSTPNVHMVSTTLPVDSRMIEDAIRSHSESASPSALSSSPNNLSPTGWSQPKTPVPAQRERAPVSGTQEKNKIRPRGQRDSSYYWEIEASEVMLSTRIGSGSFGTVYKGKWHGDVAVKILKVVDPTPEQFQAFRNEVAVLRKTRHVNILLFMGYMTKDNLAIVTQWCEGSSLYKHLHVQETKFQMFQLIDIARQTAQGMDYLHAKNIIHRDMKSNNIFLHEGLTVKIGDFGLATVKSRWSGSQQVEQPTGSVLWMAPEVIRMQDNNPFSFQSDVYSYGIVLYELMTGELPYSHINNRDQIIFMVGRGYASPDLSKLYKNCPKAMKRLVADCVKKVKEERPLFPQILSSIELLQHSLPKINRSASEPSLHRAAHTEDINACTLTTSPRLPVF
Chain of Vascular endothelial growth factor receptor 2 (Homo sapiens) (P35968 whole entry): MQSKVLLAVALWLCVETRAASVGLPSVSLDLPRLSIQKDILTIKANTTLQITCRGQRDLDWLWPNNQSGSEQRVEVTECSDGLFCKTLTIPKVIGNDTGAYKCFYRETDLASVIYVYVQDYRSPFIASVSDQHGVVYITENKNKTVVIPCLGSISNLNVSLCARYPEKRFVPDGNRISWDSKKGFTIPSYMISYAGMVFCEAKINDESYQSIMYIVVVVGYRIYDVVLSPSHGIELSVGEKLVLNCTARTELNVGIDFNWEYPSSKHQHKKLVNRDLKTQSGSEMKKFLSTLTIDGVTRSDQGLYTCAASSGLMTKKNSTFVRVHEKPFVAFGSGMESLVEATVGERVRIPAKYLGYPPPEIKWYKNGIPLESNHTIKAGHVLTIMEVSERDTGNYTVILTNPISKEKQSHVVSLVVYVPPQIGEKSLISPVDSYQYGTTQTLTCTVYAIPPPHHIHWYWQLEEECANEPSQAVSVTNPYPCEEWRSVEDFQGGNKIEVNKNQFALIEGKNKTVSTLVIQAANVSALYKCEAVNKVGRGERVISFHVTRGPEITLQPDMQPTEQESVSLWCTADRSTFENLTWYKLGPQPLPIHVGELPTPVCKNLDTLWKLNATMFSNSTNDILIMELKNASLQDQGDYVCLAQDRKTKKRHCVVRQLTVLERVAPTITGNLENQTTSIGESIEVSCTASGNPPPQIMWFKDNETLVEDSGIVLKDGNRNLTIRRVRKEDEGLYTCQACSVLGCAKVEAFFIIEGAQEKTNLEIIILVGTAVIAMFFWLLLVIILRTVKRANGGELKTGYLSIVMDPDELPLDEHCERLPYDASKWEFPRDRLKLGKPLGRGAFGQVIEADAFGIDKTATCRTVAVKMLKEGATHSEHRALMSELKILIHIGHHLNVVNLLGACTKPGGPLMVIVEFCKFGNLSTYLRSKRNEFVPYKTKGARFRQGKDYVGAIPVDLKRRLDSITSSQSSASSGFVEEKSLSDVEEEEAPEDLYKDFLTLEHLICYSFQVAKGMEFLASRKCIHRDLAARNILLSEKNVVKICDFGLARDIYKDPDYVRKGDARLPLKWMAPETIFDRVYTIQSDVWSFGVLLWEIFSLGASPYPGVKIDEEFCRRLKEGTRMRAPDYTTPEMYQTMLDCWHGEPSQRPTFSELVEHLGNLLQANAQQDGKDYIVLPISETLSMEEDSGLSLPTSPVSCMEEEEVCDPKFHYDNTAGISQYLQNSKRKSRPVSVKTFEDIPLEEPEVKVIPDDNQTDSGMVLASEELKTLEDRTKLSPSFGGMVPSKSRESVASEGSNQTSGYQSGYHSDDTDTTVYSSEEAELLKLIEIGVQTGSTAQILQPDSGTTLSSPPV

COc1cc2cc(Oc3ccc(NC(=O)Nc4ccc(Cl)c(C(F)(F)F)c4)cc3)c(C)nc2cc1OCCN1CCOCC1
TGI (PC-3 [1]): 6 µM | GI50 (EKVX [2]): 2.07 µM | GI50 (CAKI-1 [3]): 1.8 µM | GI50 (786-0): 1.89 µM | GI50 (RXF 393 [4]): 1.77 µM | TGI (SF-295): 2.85 µM | TGI (RXF 393 [5]): 3.99 µM | GI50 (NCI-H322M [6]): 2.82 µM | GI50 (NCI-H23 [7]): 1.12 µM | TGI (HOP-92): 6.17 µM | TGI (HOP-62): 4.55 µM | TGI (EKVX [8]): 13.7 µM | GI50 (NCI-H226): 1.86 µM | GI50 (SNB-75 [9]): 1.65 µM | TGI (NCI-H23 [10]): 3.89 µM | TGI (NCI/ADR-RES): 12.6 µM | TGI (SK-MEL-28): 3.12 µM | inhibition [11]: 2.32% | GI50 (MDA-MB-231): 2 µM | TGI (OVCAR-8 [12]): > 100 µM | TGI (NCI-H322M [13]): 11.2 µM | GI50 (OVCAR-3 [14]): 1.52 µM | GI50 (HCC 2998 [15]): 11.1 µM | TGI (ACHN [16]): 11.6 µM | GI50 (BT-549 [17]): 2.63 µM | GI50 (ACHN [18]): 2.03 µM | GI50 (MOLT-4): 1.48 µM | TGI (A549): > 100 µM | TGI (SF-268): 8.44 µM | GI50 (OVCAR-8 [19]): 2.67 µM | TGI (OVCAR-5 [20]): 65.2 µM | TGI (SF-539): 3.26 µM | TGI (RPMI-8226): 4.34 µM | TGI (SNB-75 [21]): 7.05 µM | GI50 (HT-29): 11.2 µM | GI50 (OVCAR-4): 0.58 µM | TGI (CAKI-1 [22]): 10.8 µM | TGI (OVCAR-3 [23]): 3.47 µM | TGI (BT-549 [24]): 9.33 µM | TGI (TK-10): 35.2 µM | TGI (NCI-H460): 3.62 µM | GI50 (U-251): 1.76 µM | TGI (HCC 2998 [25]): 11.1 µM | IC50 [26]: 0.082 µM | GI50 (OVCAR-5 [27]): 4.02 µM | GI50 (PC-3 [28]): 1.36 µM | TGI (K562): 6.95 µM | GI50 (SNB-19): 3.23 µM | GI50 (LOX IMVI): 1.39 µM
